Source: patent publication US20190315806A1, “POLYMYXIN DERIVATIVE, PREPARATION METHOD AND APPLICATION THEREOF” (priority 2016, published 2019)
In brackets after ≈: the same amount, converted by molar mass. Where two headings read alike, the source gives them in different places. Where a SMILES comes first, the peptide text is derived from it. Bridges are numbered along the chain shown (N, C = ends). [ ]: non-standard residue; d: D form. The star is where a group is joined. Heptanoyl(6-Me) = CC(C)CCCCC(=O)*; X2 = CC[C@H](C)CCCCC(=O)*; Heptanoyl = CCCCCCC(=O)*; Octanoyl = CCCCCCCC(=O)*; Dab = NCC[C@H](N)C(=O)O; Nva = CCC[C@H](N)C(=O)O

Assays:
Format in all cases: cell-based
[1] = test system: Klebsiella pneumoniae ATCC BAA-2146 (NDM-1); test: Antibacterial activity, MIC by dish double dilution method
Description: (§1) The minimum inhibitory concentration (MIC) was determined by means of dish double dilution method using a Multipoint inoculator according to the CLSI recommended method. The compounds of the present invention (for example, the compounds prepared in the Embodiments) and the reference substances were diluted twice each time with the broth into various desired concentrations, and appropriate amounts were added to the dishes. Agar medium is melted, and then quantitatively injected into the dish containing the drug solution, and mixed. The final concentrations of the compounds of the invention (e.g., the compounds prepared in the Embodiments) and the controls were 0.03, 0.06, 0.125, 0.25 . . . 128 μg/mL, respectively. The test bacteria were cultured overnight with nutrient broth, brain heart infusion or HTM broth. During the tests, the bacterial solutions were diluted appropriately, and the test bacteria (inoculation amount 10^4 CFU/dot) were inoculated on the surface of the drug-containing agar by a multi-point inoculator. After drying, the bacterial was incubated for 18 to 24 hours at 35° C., the results were observed, the minimum concentrations of the compounds of the present invention (for example, the compounds prepared in the Embodiments) and the controls contained in the dishes with no growth of colonies were MICs.
(§2) The strains used in the antibacterial activity experiments were from the American Type Culture Collection (ATCC) and clinical isolates.
(§3) The strains used for the experiments on antibacterial activity included Escherichia coli ATCC 25922, Klebsiella pneumoniae ATCC BAA-2146 (NDM-1), Pseudomonas aeruginosa ATCC 27853, Acinetobacter baumannii ATCC 19606 and Staphylococcus epidermidis ATCC 12228.
(§4) Tested samples: polymyxin derivatives prepared according to the technical scheme of the present invention;
(§5) Controls: polymyxin B sulfate and colistin (polymyxin E sulfate).

[2] = test system: Pseudomonas aeruginosa ATCC 27853
Description: as §1, §2, §3, §4, §5

[3] = test system: Escherichia coli ATCC 25922
Description: as §1, §2, §3, §4, §5

[4] = test system: Acinetobacter baumannii ATCC 19606
Description: as §1, §2, §3, §4, §5

[5] = test system: Staphylococcus epidermidis ATCC 12228
Description: as §1, §2, §3, §4, §5

[6] = agar dilution, 10^4 CFU/dot, 18 to 24 hours at 35° C.

Compound | MIC K. pneumoniae ATCC BAA-2146 (NDM-1) ([1]; ATCC BAA-2146) [µg/mL] | MIC P. aeruginosa ATCC 27853 ([2]; ATCC 27853) [µg/mL] | MIC E. coli ATCC 25922 ([3]; ATCC 25922) [µg/mL] | MIC A. baumannii ATCC 19606 ([4]; ATCC 19606) [µg/mL] | MIC S. epidermidis ATCC 12228 ([5]; ATCC 12228) [µg/mL] | MIC K. pneumoniae ATCC BAA-2146 (NDM-1) [1, 6] [µg/mL] | MIC P. aeruginosa ATCC 27853 [2, 6] [µg/mL] | MIC E. coli ATCC 25922 [3, 6] [µg/mL] | MIC A. baumannii ATCC 19606 [4, 6] [µg/mL] | MIC S. epidermidis ATCC 12228 [5, 6] [µg/mL]
CCCCCCCC(=O)N[C@@H](CCN)C(=O)N[C@H](C(=O)N[C@H](CO)C(=O)N[C@H]1CCNC(=O)[C@H]([C@@H](C)O)NC(=O)[C@H](CCN)NC(=O)[C@H](CCN)NC(=O)[C@H]([C@@H](C)O)NC(=O)[C@@H](CC(C)C)NC(=O)[C@H](CCN)NC1=O)[C@@H](C)O [Compound 60, octanoyl-Dab-Thr-D-Ser-ring(4-10)[Dab-Dab-D-Leu-Thr-Dab-Dab-Thr]] (Octanoyl-[Dab]T[dS][Dab][Dab][dL]T[Dab][Dab]T; lactam 4-C) | 0.5 (≈ 0.442 µM) | 2 (≈ 1.77 µM) | 0.12 (≈ 0.106 µM) | 0.06 (≈ 0.0531 µM) | >128 | – | – | – | – | –
CC[C@H](C)CCCCC(=O)N[C@@H](CCN)C(=O)N[C@H](C(=O)N[C@@H](CCN)C(=O)N[C@H]1CCNC(=O)[C@H]([C@@H](C)O)NC(=O)[C@H](CCN)NC(=O)[C@H](CCN)NC(=O)[C@H](CC(C)C)NC(=O)[C@@H](CC(C)C)NC(=O)[C@H](CCN)NC1=O)[C@@H](C)O [Compound 70, (S)-6-methyloctanoyl-Dab-Thr-Dab-ring(4-10)[Dab-Dab-D-Leu-Leu-Dab-Dab-Thr]] (X2-[Dab]T[Dab][Dab][Dab][dL]L[Dab][Dab]T; lactam 4-C) | – | – | – | – | – | 1 (≈ 0.855 µM) | 2 (≈ 1.71 µM) | 1 (≈ 0.855 µM) | 1 (≈ 0.855 µM) | 64 (≈ 54.7 µM)
CC(C)CCCCC(=O)N[C@@H](CCN)C(=O)N[C@H](C(=O)N[C@@H](CCN)C(=O)N[C@H]1CCNC(=O)[C@H]([C@@H](C)O)NC(=O)[C@H](CCN)NC(=O)[C@H](CCN)NC(=O)[C@H](CC(C)C)NC(=O)[C@@H](CC(C)C)NC(=O)[C@H](CCN)NC1=O)[C@@H](C)O [Compound 74, 6-methylheptanoyl-Dab-Thr-Dab-ring(4-10)[Dab-Dab-D-Leu-Leu-Dab-Dab-Thr]] ({Heptanoyl(6-Me)}-[Dab]T[Dab][Dab][Dab][dL]L[Dab][Dab]T; lactam 4-C) | – | 2 (≈ 1.73 µM) | 0.5 (≈ 0.433 µM) | 0.5 (≈ 0.433 µM) | 64 (≈ 55.4 µM) | 1 (≈ 0.865 µM) | – | – | – | –
CCCCCCCC(=O)N[C@@H](CCN)C(=O)N[C@H](C(=O)N[C@@H](CCN)C(=O)N[C@H]1CCNC(=O)[C@H]([C@@H](C)O)NC(=O)[C@H](CCN)NC(=O)[C@H](CCN)NC(=O)[C@H](CC(C)C)NC(=O)[C@@H](CC(C)C)NC(=O)[C@H](CCN)NC1=O)[C@@H](C)O [Compound 78, octanoyl-Dab-Thr-Dab-ring(4-10)[Dab-Dab-D-Leu-Leu-Dab-Dab-Thr]] (Octanoyl-[Dab]T[Dab][Dab][Dab][dL]L[Dab][Dab]T; lactam 4-C) | 0.5 (≈ 0.433 µM) | 1 (≈ 0.865 µM) | 0.5 (≈ 0.433 µM) | 0.5 (≈ 0.433 µM) | 32 (≈ 27.7 µM) | – | – | – | – | –
CCCCCCCC(=O)N[C@@H](CCN)C(=O)N[C@H](C(=O)N[C@@H](CCN)C(=O)N[C@H]1CCNC(=O)[C@H]([C@@H](C)O)NC(=O)[C@H](CCN)NC(=O)[C@H](CCN)NC(=O)[C@H]([C@@H](C)CC)NC(=O)[C@@H](CC(C)C)NC(=O)[C@H](CCN)NC1=O)[C@@H](C)O [Compound 79, octanoyl-Dab-Thr-Dab-ring(4-10)[Dab-Dab-D-Leu-Ile-Dab-Dab-Thr]] (Octanoyl-[Dab]T[Dab][Dab][Dab][dL]I[Dab][Dab]T; lactam 4-C) | 1 (≈ 0.865 µM) | 1 (≈ 0.865 µM) | 0.5 (≈ 0.433 µM) | 0.5 (≈ 0.433 µM) | >128 | – | – | – | – | –
CCCCCCCC(=O)N[C@@H](CCN)C(=O)N[C@H](C(=O)N[C@@H](CCN)C(=O)N[C@H]1CCNC(=O)[C@H]([C@@H](C)O)NC(=O)[C@H](CCN)NC(=O)[C@H](CCN)NC(=O)[C@H](C(C)C)NC(=O)[C@@H](CC(C)C)NC(=O)[C@H](CCN)NC1=O)[C@@H](C)O [Compound 80, octanoyl-Dab-Thr-Dab-ring(4-10)[Dab-Dab-D-Leu-Val-Dab-Dab-Thr]] (Octanoyl-[Dab]T[Dab][Dab][Dab][dL]V[Dab][Dab]T; lactam 4-C) | 0.5 (≈ 0.438 µM) | 1 (≈ 0.876 µM) | 0.5 (≈ 0.438 µM) | 1 (≈ 0.876 µM) | >128 | – | – | – | – | –
CCCCCCCC(=O)N[C@@H](CCN)C(=O)N[C@H](C(=O)N[C@@H](CCN)C(=O)N[C@H]1CCNC(=O)[C@H]([C@@H](C)O)NC(=O)[C@H](CCN)NC(=O)[C@H](CCN)NC(=O)[C@H](CCC)NC(=O)[C@@H](CC(C)C)NC(=O)[C@H](CCN)NC1=O)[C@@H](C)O [Compound 81, octanoyl-Dab-Thr-Dab-ring(4-10)[Dab-Dab-D-Leu-Nva-Dab-Dab-Thr]] (Octanoyl-[Dab]T[Dab][Dab][Dab][dL][Nva][Dab][Dab]T; lactam 4-C) | 1 (≈ 0.876 µM) | 1 (≈ 0.876 µM) | 0.5 (≈ 0.438 µM) | 1 (≈ 0.876 µM) | >128 | – | – | – | – | –
CCCCCCC(=O)N[C@@H](CCN)C(=O)N[C@H](C(=O)N[C@@H](CCN)C(=O)N[C@H]1CCNC(=O)[C@H]([C@@H](C)O)NC(=O)[C@H](CCN)NC(=O)[C@H](CCN)NC(=O)[C@H]([C@@H](C)CC)NC(=O)[C@@H](CC(C)C)NC(=O)[C@H](CCN)NC1=O)[C@@H](C)O [Compound 83, heptanoyl-Dab-Thr-Dab-ring(4-10)[Dab-Dab-D-Leu-Ile-Dab-Dab-Thr]] (Heptanoyl-[Dab]T[Dab][Dab][Dab][dL]I[Dab][Dab]T; lactam 4-C) | 1 (≈ 0.876 µM) | 1 (≈ 0.876 µM) | 0.5 (≈ 0.438 µM) | 1 (≈ 0.876 µM) | >128 | – | – | – | – | –
CCCCCCCC(=O)N[C@@H](CCN)C(=O)N[C@H](C(=O)N[C@@H](CO)C(=O)N[C@H]1CCNC(=O)[C@H]([C@@H](C)O)NC(=O)[C@H](CCN)NC(=O)[C@H](CCN)NC(=O)[C@H](CC(C)C)NC(=O)[C@@H](CC(C)C)NC(=O)[C@H](CCN)NC1=O)[C@@H](C)O [Compound 98, octanoyl-Dab-Thr-Ser-ring(4-10)[Dab-Dab-D-Leu-Leu-Dab-Dab-Thr]] (Octanoyl-[Dab]TS[Dab][Dab][dL]L[Dab][Dab]T; lactam 4-C) | 1 (≈ 0.875 µM) | 1 (≈ 0.875 µM) | 0.5 (≈ 0.438 µM) | 0.5 (≈ 0.438 µM) | >128 | – | – | – | – | –
